Source: patent US20090099167A1, “Organic compounds” (Novartis Institutes for Biomedical Research, priority 2004, published 2009)
pIC50: −log10 of the molar value.

Columns and labels:
Assay type in all cases: biochemical
c-Kit = target: T1, c-Kit (Homo sapiens, UniProt P10721); assay: c-kit kinase inhibition; conditions: Table 4
T1 construct: whole cytoplasmic domain of c-Kit (aa 544-976); made in house; host or cells: Sf9 or High Five (baculovirus)

human RET = target: T2, human RET (Homo sapiens, UniProt P07949); assay: RET kinase inhibition, GST-wtRET or GST-RET-Men2B, 33P incorporation into poly(Glu,Tyr); conditions: Table 4
T2 construct: fused on or other part: N-terminal GST tag (pFB-GSTX3 vector)
Description: The inhibition of RET is measured as follows: The baculovirus donor vector pFB-GSTX3 is used to generate a recombinant baculovirus that expresses the amino acid region 658-1072 (Swiss prot No. Q9BTB0) of the intra-cytoplasmic kinase domain of human RET-Men2A which corresponds to the wild-type kinase domain of RET (wtRET) and RET-Men2B, which differs from the wtRET by the activating mutation in the activation loop M918T. The coding sequences for the cytoplasmic domain of wtRET and RET-Men2B are amplified by PCR from the plasmids pBABEpuro RET-Men2A and pBABEpuro RET-Men2B. The amplified DNA fragments and the pFB-GSTX3 vector are made compatible for ligation by digestion with SalI and KpnI. Ligation of these DNA fragments results in the baculovirus donor plasmid pFB-GX3-RET-Men2A and pFB-GX3-RET-Men2B, respectively. Production of virus: Transfer vectors containing the kinase domains are transfected into the DH10Bac cell line (GIBCO) and plated on selective agar plates. Colonies without insertion of the fusion sequence into the viral genome (carried by the bacteria) are blue. Single, white colonies are picked and viral DNA (bacmid) are isolated from the bacteria by standard plasmid purification procedures. Sf9 cells or Sf21 (American Type Culture Collection) cells are then transfected in 25 cm^2 flasks with the viral DNA using Cellfectin reagent. Determination of small scale protein expression in Sf9 cells: Virus-containing media is collected from the transfected cell culture and used for infection to increase its titer. Virus-containing media obtained after two rounds of infection is used for large-scale protein expression. For large-scale protein expression 100 cm^2 round tissue culture plates are seeded with 5×10^7 cells/plate and infected with 1 mL of virus-containing media (approximately 5 MOIs). After 3 days, the cells are scraped off the plate and centrifuged at 500 rpm for 5 minutes. Cell pellets from 10-20, 100 cm^2 plates, are re-suspended in 50 mL of ice-cold lysis buffer (25 mM tris-HCl, pH 7.5, 2 mM EDTA, 1% NP-40, 1 mM DTT, 1 mM P MSF). The cells are stirred on ice for 15 minutes and then centrifuged at 5,000 rpms for 20 minutes. Purification of GST-tagged proteins: The centrifuged cell lysate is loaded onto a 2 mL glutathione-sepharose column (Pharmacia) and is washed 3× with 10 mL of 25 mM tris-HCl, pH 7.5, 2 mM EDTA, 1 mM DTT, 200 mM NaCl. The GST-tagged proteins are then eluted by 10 applications (1 mL each) of 25 mM tris-HCl, pH 7.5, 10 mM reduced-glutathione, 100 mM NaCl, 1 mM DTT, 10% glycerol and stored at −70° C. Measure of enzyme activity: Tyrosine protein kinase assays with either purified GST-wtRET or GST-RET-Men2B protein are carried out in a final volume of 30 μL containing 15 ng of either GST-wtRET or GST-RET-Men2B protein, 20 mM tris-HCl, pH 7.5, 1 mM MnCl2, 10 mM MgCl2, 1 mM DTT, 3 μg/mL poly(Glu,Tyr) 4:1, 1% DMSO, 2.0 μM ATP (γ-[^33P]-ATP 0.1 μCi). The activity is assayed in the presence or absence of inhibitors, by measuring the incorporation of ^33P from [γ^33P] ATP into poly(Glu,Tyr) 4:1. The assay is carried out in 96-well plates at ambient temperature for 15 minutes under conditions described below and terminated by the addition of 20 μL of 125 mM EDTA. Subsequently, 40 μL of the reaction mixture are transferred onto Immobilon-PVDF membrane (Millipore) previously soaked for 5 minutes with methanol, rinsed with water, then soaked for 5 minutes with 0.5% H3PO4 and mounted on vacuum manifold with disconnected vacuum source. After spotting all samples, vacuum is connected and each well-rinsed with 200 μL 0.5% H3PO4. Membranes are removed and washed 4× on a shaker with 1.0% H3PO4, once with ethanol. Membranes are counted after drying at ambient temperature, mounting in Packard TopCount 96-well frame, and addition of 10 μL/well of Microscint™ (Packard). IC50 values are calculated by linear regression analysis of the percentage inhibition of each compound in duplicate, at 4 concentrations (usually 0.01, 0.1, 1 and 10 μM). […]

c-Abl kinase = target: T3, c-Abl kinase (Homo sapiens, UniProt P00519); assay: c-Abl protein-tyrosine kinase filter binding assay
T3 construct: The His-tagged kinase domain of c-Abl is cloned and expressed in the baculovirus/Sf9 system; His; made in house; host or cells: Sf9 (baculovirus)
T3 sequence (P00519 242-493 limits assumed): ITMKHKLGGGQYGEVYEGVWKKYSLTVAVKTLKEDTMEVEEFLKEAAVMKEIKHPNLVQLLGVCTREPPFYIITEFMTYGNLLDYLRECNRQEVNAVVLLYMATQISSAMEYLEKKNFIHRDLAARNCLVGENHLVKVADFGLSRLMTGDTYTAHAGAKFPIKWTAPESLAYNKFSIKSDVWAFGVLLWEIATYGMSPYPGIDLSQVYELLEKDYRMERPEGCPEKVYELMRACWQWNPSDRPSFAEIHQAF
Description: The His-tagged kinase domain of c-Abl is cloned and expressed in the baculovirus/Sf9 system as described by Bhat et al. in J. Biol. Chem. 1997; 272:16170-16175. A protein of 37 kD (c-Abl kinase) is purified by a two-step procedure over a Cobalt metal chelate column followed by an anion exchange column with a yield of 1-2 mg/L of Sf9 cells (Bhat et al., reference cited). The purity of the c-Abl kinase is >90% as judged by SDS-PAGE after Coomassie blue staining. The assay contains (total volume of 30 μL): c-Abl kinase (50 ng), 20 mM Tris.HCl, pH 7.5, 10 mM MgCl2, 10 μM Na3VO4, 1 mM DTT and 0.06 μCi/assay [γ^33 P]-ATP (5 μM ATP) using 30 μg/mL poly-Ala,Glu,Lys,Tyr-6:2:5:1 (Poly-AEKY, Sigma P1152) in the presence of 1% DMSO. Reactions are terminated by adding 10 μL of 250 mM EDTA and 30 μL of the reaction mixture is transferred onto Immobilon-PVDF membrane (Millipore, Bedford, Mass., USA) previously soaked for 5 min with methanol, rinsed with water, then soaked for 5 min with 0.5% H3PO4 and mounted on vacuum manifold with disconnected vacuum source. After spotting all samples, vacuum is connected and each well rinsed with 200 μL 0.5% H3PO4. Membranes are removed and washed on a shaker with 0.5% H3PO4 (4 times) and once with ethanol. Membranes are counted after drying at ambient temperature, mounting in Packard TopCount 96-well frame, and addition of 10 μL/well of Microscint™ (Packard).

T1 sequence (P10721 544-976): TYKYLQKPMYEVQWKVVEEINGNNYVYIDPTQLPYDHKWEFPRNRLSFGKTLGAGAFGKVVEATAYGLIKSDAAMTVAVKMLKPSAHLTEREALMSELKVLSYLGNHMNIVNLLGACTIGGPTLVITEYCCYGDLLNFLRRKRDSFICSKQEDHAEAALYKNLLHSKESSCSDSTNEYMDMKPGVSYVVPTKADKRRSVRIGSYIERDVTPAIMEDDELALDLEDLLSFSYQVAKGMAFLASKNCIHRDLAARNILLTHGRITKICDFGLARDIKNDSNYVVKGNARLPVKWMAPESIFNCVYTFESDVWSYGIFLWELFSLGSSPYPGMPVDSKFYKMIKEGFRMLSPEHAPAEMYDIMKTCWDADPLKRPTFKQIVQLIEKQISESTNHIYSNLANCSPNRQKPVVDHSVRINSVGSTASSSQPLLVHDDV
T2 sequence (P07949 1-1072 isoform P07949-2): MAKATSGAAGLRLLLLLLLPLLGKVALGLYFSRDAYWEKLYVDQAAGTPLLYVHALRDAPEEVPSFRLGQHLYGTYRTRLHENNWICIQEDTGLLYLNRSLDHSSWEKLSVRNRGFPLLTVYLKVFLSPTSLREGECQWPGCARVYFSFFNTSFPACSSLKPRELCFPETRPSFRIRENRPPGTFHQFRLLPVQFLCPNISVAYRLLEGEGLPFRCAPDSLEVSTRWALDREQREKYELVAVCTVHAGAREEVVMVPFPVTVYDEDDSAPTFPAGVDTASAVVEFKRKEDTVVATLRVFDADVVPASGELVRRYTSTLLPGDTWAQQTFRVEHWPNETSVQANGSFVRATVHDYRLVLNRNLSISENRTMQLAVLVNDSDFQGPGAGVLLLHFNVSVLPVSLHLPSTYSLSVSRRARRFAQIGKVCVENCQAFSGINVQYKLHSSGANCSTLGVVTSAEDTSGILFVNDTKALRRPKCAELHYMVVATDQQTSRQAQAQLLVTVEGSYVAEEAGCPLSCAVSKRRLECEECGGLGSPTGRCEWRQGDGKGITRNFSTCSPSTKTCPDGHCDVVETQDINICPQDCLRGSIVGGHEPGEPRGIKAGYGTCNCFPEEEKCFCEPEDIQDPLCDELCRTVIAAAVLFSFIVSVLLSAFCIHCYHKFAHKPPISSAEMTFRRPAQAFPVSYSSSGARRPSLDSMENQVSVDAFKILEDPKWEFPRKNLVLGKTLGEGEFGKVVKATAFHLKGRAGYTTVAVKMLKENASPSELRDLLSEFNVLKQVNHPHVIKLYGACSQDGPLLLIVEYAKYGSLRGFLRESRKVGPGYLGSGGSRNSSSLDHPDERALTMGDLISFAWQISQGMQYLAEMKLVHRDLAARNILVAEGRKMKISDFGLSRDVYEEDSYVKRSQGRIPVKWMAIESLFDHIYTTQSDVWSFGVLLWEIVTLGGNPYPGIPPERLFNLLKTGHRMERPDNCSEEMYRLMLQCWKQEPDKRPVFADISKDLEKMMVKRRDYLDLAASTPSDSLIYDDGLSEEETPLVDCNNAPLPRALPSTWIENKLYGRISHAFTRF

SMILES: CN1CCN(c2ccc(-c3cnn4c(N)c(-c5ccsc5)cnc34)cc2)CC1 [Example 21, 3-[4-(4-Methyl-piperazin-1-yl)-phenyl]-6-thiophen-3-yl-pyrazolo[1,5-a]pyrimidin-7-ylamine]
- pIC50 (c-Kit): > 5.00

SMILES: COc1cccc(-c2cnc3c(-c4cccc(N5CCN(C)CC5)c4)cnn3c2N)c1 [Example 24, 6-(3-Methoxy-phenyl)-3-[3-(4-methyl-piperazin-1-yl)-phenyl]-pyrazolo[1,5-a]pyrimidin-7-ylamine]
- pIC50 (c-Kit): > 5.00

SMILES: CN1CCN(c2ccc(-c3cnn4c(N)c(-c5ccc(O)cc5)cnc34)cc2)CC1 [Example 35, 4-{7-Amino-3-[4-(4-methyl-piperazin-1-yl)-phenyl]-pyrazolo[1,5-a]pyrimidin-6-yl}-phenol]
- pIC50 (human RET): > 5.00
- pIC50 (c-Abl kinase): > 5.00
